Tests used:
[1] = Pharmacokinetic study of oral vs intra-cecal administration of tacrolimus (Example 13); parameters: species or system Yorkshire-Cross farm swine; details: in vivo, 0.09 mg/kg
Excerpt: (§1) No further randomization procedure was employed.

[2] = parameters: species or system Yorkshire-Cross farm swine; details: in vivo
Method: The primary objective of this study was to compare the tissue, plasma, rectal sample, and GI content pharmacokinetics of tacrolimus through oral versus intra-cecal ingestible device delivery in normal Yorkshire-Cross farm swine.
as §1
Animals in Group 1 received an ingestible device containing 0.8 mL of vehicle solution (80% alcohol, 20% HCO-60). Animals in Group 2 received orally […] liquid formulation of tacrolimus at 4 mg/0.8 mL per animal (Prograf: 5 mg/mL). Animals in Group 3 received intra-cecally an ingestible device containing tacrolimus at 1 mg in 0.8 mL per ingestible device. Animals in Group 4 received intra-cecally an ingestible device containing tacrolimus at 2 mg in 0.8 mL per ingestible device. Animals in Group 5 received intra-cecally an ingestible device containing tacrolimus at 4 mg in 0.8 mL per ingestible device. To control for potential confounding effects of the surgery, all groups fast on Day −11 at least 24 hr before being subjected to anesthesia followed by surgical placements of a cecal port by a veterinary surgeon at Day −10. All animals were fasted for at least 12 hr prior to dosing on Day 1. Animals were dosed via either intra-cecal dosing (IC) or oral dosing (PO) at Day 1 (between 6-8 p.m.). All animals resumed feeding at approximately 4 hours after dose (11-12 p.m. after dosing).
Animals in Group 1 (Vehicle Control) were administered a single intra-cecal ingestible device containing 0.8 mL Vehicle solution (80% alcohol, 20% castor oil (HCO-60) on Day 1. On Day −10 the animals were anesthetized, and a veterinary surgeon surgically placed an intra-cecal port in each animal. On Day 1, each animal was placed into a sling then a single intra-cecal ingestible device containing 0.8 mL vehicle solution (80% alcohol, 20% castor oil (HCO-60)) is introduced by the veterinary surgeon into the cecum via the cecal port in each animal. Following ingestible device placement, the animals were removed from the slings and placed back into their pens with water. All animals resumed feeding at approximately 4 hours after dose. […] A total of 60 samples were collected.
Approximately 200˜400 mg of rectal content were collected, if available, with a fecal swab (Copan Diagnostics Nylon Flocked Dry Swabs, 502CS01). The fecal swab was pre-weighed and weighed after collection in the collection tube (Sterile Tube and Cap No Media, PFPM913S), and the sample weight was recorded. The fecal swab was broken via the breakpoint, and was stored in the collection tube, and immediately frozen at −70° C. […] Immediately following euthanasia, tissue was collected.
For tissue necropsy, small intestine fluid and cecal fluid were collected separately from all the animals into two separate square plastic bottles, and stored at −20° C. The length and diameter of the cecum and the colon was measured from one animal in each group and recorded for reference. Tissues were collected for pharmacokinetic analyses and include mesenteric lymph nodes, a Peyer's Patch, and five gastrointestinal sections, including cecum, proximal colon, transverse colon, distal colon, and rectum. All samples were weighed, and the tissue sample weights were recorded. In each of the five gastrointestinal sections, tissue samples were collected in three different areas where the mucosal surface was visible and not covered by luminal content by using an 8.0-mm punch biopsy tool. Around 3 grams of the total punched sample were collected into a pre-weighed 15-mL conical tube, and the tissue weight was recorded. Three mesenteric lymph nodes were collected from different areas and weighed. At least one Peyer's Patch was collected and weighed.
Luminal contents were collected for pharmacokinetic analyses from the surface of the tissue from each of five gastrointestinal sections: cecum, proximal colon, transverse colon, distal colon, and rectum (total of 75). […]

[3] = female, Yorkshire-Cross, pig, po, 12 h

Kp at 12 h ([1]; female, Yorkshire-Cross, pig, po): 0
Ratio Tissue(mean) (ng/g)/Trough(12 hr) (ng/mL), Cecum [1, 3]: 0
Ratio Tissue(mean) (ng/g)/Trough(12 hr) (ng/mL), Distal Colon [1, 3]: 0
Ratio Tissue(mean) (ng/g)/Trough(12 hr) (ng/mL), Proximal Colon [1, 3]: 0
Ratio Tissue(mean) (ng/g)/Trough(12 hr) (ng/mL), Transverse colon [1, 3]: 0
Trough (12 hr) ([1]; female, Yorkshire-Cross, swine, po, 12 h): 0.568 ng/mL
concentration at 12 h ([1]; female, Yorkshire-Cross, swine, po, Trough (12 hr)): 0.568 ± 0.291 ng/mL
AUC0-12 hours in the blood, intra-cecal vs oral [1]: higher
mean concentration in the blood, intra-cecal vs oral [1]: higher
exposure AUC [2]: < 2000-12 ng·h/mL
luminal content concentration, distal colon, IC capsule vs PO [2]: Significantly higher
luminal content concentration, spiral colon, IC capsule vs PO [2]: Significantly higher
luminal content concentration, transverse colon, IC capsule vs PO [2]: Significantly higher
tissue concentration, spiral colon, IC capsule vs PO [2]: Significantly higher
tissue concentration, transverse colon, IC capsule vs PO [2]: Significantly higher
level of tacrolimus detected in tissue ([2]; po): No measurable level
Structure (SMILES): C=CC[C@@H]1/C=C(\C)C[C@H](C)C[C@H](OC)[C@H]2O[C@@](O)(C(=O)C(=O)N3CCCC[C@H]3C(=O)O[C@H](/C(C)=C/[C@@H]3CC[C@@H](O)[C@H](OC)C3)[C@H](C)[C@@H](O)CC1=O)[C@H](C)C[C@@H]2OC [tacrolimus]
